pIC50: −log10 of the molar value.
Each compound was assayed against T1, Human thrombin (Homo sapiens, UniProt P00734) (assay: Anti-thrombin assay (hydrolysis of chromogenic substrate S-2238)). Details: chromogenic substrate S-2238, TNP buffer, pH 7.4, 37° C.; read-out: Antithrombin activity: IC50.
T1 construct: purchased Centraal Laboratorium voor Bloedtransfusie, Amsterdam, The Netherlands
Assay type: biochemical
Procedure: Thrombin (Factor IIa) is a factor in the coagulation cascade. The anti-thrombin activity of compounds of the present invention was assessed by measuring spectrophotometrically the rate of hydrolysis of the chromogenic substrate s-2238 exterted by thrombin. This assay for anti-thrombin activity in a buffer system was used to assess the IC50-value of a test compound.
Test medium: Tromethamine-NaCl-polyethylene glycol 6000 (TNP) buffer
Reference compound: 12581 (Kabi)
Vehicle: TNP buffer. Solubilisation can be assisted with dimethylsulphoxide, methanol, ethanol, acetonitrile or tert.-butyl alcohol which are without adverse effects in concentrations up to 2.5% in the final reaction mixture.
Technique Reagents* • 1. Tromethamine-NaCl (TN) buffer Composition of the buffer:
• The pH of the solution is adjusted to 7.4 at 37° C. with HCl (10 mmol.l^−1). • 2. TNP buffer Polyethylene glycol 6000 is dissolved in TN buffer to give a concentration of 3 g.l^−1. • 3. S-2238 solution One vial S-2238 (25 mg; Kabi Diagnostica, Sweden) is dissolved in 20 ml TN buffer to give a concentration of 1.25 mg.ml^−1 (2 mmol.l^−1). • 4. Thrombin solution Human thrombin (16 000 nKat.vial^−1; Centraal Laboratorium voor Bloedtransfusie, Amsterdam, The Netherlands) is dissolved in TNP buffer to give a stock solution of 835 nKat.ml^−1. Immediately before use this solution is diluted with TNP buffer to give a concentration of 3.34 nKat.ml^−1. • All ingredients used are of analytical grade • For aqueous solutions ultrapure water (Milli-Q quality) is used.
Preparation of test and reference compound solutions
The test and reference compounds are dissolved in Milli-Q water to give stock concentrations of 10^−2 mol.l^−1. Each concentration is stepwise diluted with the vehicle to give concentrations of 10^−3, 10^−4 and 10^−5 mol.l^−1. The dilutions, including the stock solution, are used in the assay (final concentrations in the reaction mixture: 3·10^−3; 10^−3; 3·10^−4; 10^−4; 3.10^−5; 10^−5; 3.10^−6 and 10^−6 mol.l^−1, respectively).
At room temperature 0.075 ml and 0.025 ml test compound or reference compound solutions or vehicle are alternately pipetted into the wells of a microtiter plate and these solutions are diluted with 0.115 ml and […] TNP buffer, respectively. An aliquot of 0.030 ml S-2238 solution is added to each well and the plate is pre-heated and pre-incubated with shaking in an incubator (Amersham) for 10 min. at 37° C. Following pre-incubation the hydrolysis of S-2238 is started by addition of 0.030 ml thrombin solution to each well. The plate is incubated (with shaking for 30 s) at 37° C. Starting after 1 min of incubation, the absorbance of each sample at 405 nm is measured every 2 min. for a period of 90 min. using a kinetic microtiter plate reader (Twinreader plus, Flow Laboratories). All data are collected in an IBM personal computer using LOTUS-MEASURE. For each compound concentration (expressed in mol.l^−1 reaction mixture) and for the blank the absorbance is plotted versus the reaction time in min.
Evaluation of responses: For each final concentration the maximum absorbance was calculated from the assay plot. The IC50-value (final concentration, expressed in μmol.l^−1, causing 50% inhibition of the maximum absorbance of the blank) was calculated using the logit transformation analysis according to Hafner et al. (Arzneim.-Forsch./Drug Res. 1977; 27(II): 1871-3).
Compound “1-(N-cyclooctyl-γ-tert-butyl-L-glutamyl)-2-(2-(1-amino-isoquinolin-6-oxy)-ethyl)-piperidine [Example 8]” has a pIC50 of 6.21.
Compound CC1(C)C2CCC1(CS(=O)(=O)NC(CC1CCCCC1)C(=O)N1CCCCC1CCOc1ccc3c(N)nccc3c1)C(=O)C2 [Example 1, (2S)-1-(N-(−)-camphorsulphonyl-D-cyclohexylalaninyl)-2-(2-(1-amino-isoquinolin-6-oxy)-eythyl)-piperidine] has a pIC50 of 6.39.
For Nc1nccc2cc(OCCC3CCCCN3C(=O)C(CC3CCCCC3)NCC(=O)NC3CCCC3)ccc12 [Example 9, 1-(N-cyclopentylaminocarbonylmethyl-D-cyclohexylalaninyl)-2-(2-(1-amino-isoquinolin-6-oxy)-ethyl)-piperidine], the pIC50 was 6.49.
In the case of Nc1nccc2cc(OCCC3CCCCN3C(=O)C(CC3CCCCC3)NCC(=O)Nc3ccccc3)ccc12 [Example 10, 1-(N-anilinocarbonylmethyl-D-cyclohexylalaninyl)-2-(2-(1-amino-isoquinolin-6-oxy)-ethyl)-piperidine], the pIC50 was 5.87.
With Nc1nccc2cc(OCCC3CCCCN3C(=O)C(CC3CCCCC3)NC3CCCCC3)ccc12 [Example 11, 1-(N-cyclohexyl-D-cyclohexylalanine)-2-(2-(1-amino-isoquinolin-6-oxy)-ethyl)-piperidine] the pIC50 was 6.30.

From patent US6903107B1, “Serine protease inhibitor” (Akzo Nobel N.V., priority 1998, dated 2005)
